Assay results reported in patent US11912682B2, “Isoindolinone compounds” (Monte Rosa Therapeutics, Inc., priority 2021, dated 2024).
pIC50: −log10 of the molar value. Like-named read-outs stand apart in the source and are kept apart here.

What was measured:
GSPT1 = GSPT1 (Homo sapiens (Human), UniProt P15170+Q96SW2); experiment: immunofluorescence assay for GSPT1 degradation in CAL-51 cells (Example 4); format: cell-based
Procedure, shortened: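 CAL-51 cells on fibronectin-coated plates were treated 6 h with serial dilutions (30 μM to 0.1 nM), then fixed and immunostained for GSPT1 with DAPI and phalloidin counterstains. Per-cell mean GSPT1 intensity from high-content imaging, normalized to controls; DC50 by non-linear regression.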

[1] = target: Full length wild-type cereblon CRBN (Homo sapiens (Human), UniProt Q96SW2); experiment: fluorescence polarization (FP) assay, cereblon binding
Sequence of Full length wild-type cereblon CRBN (Q96SW2 whole entry): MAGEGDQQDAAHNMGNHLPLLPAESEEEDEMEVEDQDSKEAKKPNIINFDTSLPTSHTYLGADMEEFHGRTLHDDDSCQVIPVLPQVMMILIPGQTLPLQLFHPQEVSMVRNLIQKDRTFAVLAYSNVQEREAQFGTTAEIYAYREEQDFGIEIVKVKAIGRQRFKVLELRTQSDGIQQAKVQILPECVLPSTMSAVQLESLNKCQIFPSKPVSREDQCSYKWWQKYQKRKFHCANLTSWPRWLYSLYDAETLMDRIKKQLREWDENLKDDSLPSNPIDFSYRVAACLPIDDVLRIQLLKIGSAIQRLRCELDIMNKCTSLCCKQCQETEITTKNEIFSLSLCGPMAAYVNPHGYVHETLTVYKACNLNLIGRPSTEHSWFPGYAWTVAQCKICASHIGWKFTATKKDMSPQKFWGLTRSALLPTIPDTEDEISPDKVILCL
Excerpt: Compound activity was monitored in a fluorescence polarization (FP) homogeneous assay using 1-[5-({2-[2-(2-{[2-(2,6-dioxopiperidin-3-yl)-1,3-dioxo-2,3-dihydro-1H-isoindol-4-yl]oxy}acetamido)ethoxy]ethyl}carbamoyl)pentyl]-3,3-dimethyl-2-[(1E,3E)-5-[(2E)-1,3,3-trimethyl-5-sulfo-2,3-dihydro-1H-indol-2-ylidene]penta-1,3-dien-1-yl]-3H-indol-1-ium-5-sulfonate as a fluorescent probe. Unless otherwise stated, all reagents were purchased from Sigma Aldrich. […] Full length wild-type cereblon CRBN (80.0 nM, 10 μL) was incubated in assay buffer containing 20 mM HEPES (pH 8.0), […], 0.5 mM TCEP and 0.05% Tween 20 in the presence or absence of compound (300 nL). Inhibitors were stored as 10 mM DMSO stocks in an inert environment (low humidity, dark, low oxygen, room temperature) using the Storage Pod System. […] Following incubation at room temperature for 30 min, the assay was initiated by dispensing the probe to a final concentration of 5 nM (2.5 nL of a 20 μM stock) using the Echo ESXX. […] The FP signal was subsequently normalized to the no-compound control (i.e., DMSO). Analysis and IC50 values were derived using Dotmatics (Dotmatics UK) software.

[2] = 6 hours, read-out: Activity for GSPT1 degradation, Code (DC50)
[3] = GSPT1 degradation, read-out: DC50 value

Sequence of GSPT1 (P15170 whole entry): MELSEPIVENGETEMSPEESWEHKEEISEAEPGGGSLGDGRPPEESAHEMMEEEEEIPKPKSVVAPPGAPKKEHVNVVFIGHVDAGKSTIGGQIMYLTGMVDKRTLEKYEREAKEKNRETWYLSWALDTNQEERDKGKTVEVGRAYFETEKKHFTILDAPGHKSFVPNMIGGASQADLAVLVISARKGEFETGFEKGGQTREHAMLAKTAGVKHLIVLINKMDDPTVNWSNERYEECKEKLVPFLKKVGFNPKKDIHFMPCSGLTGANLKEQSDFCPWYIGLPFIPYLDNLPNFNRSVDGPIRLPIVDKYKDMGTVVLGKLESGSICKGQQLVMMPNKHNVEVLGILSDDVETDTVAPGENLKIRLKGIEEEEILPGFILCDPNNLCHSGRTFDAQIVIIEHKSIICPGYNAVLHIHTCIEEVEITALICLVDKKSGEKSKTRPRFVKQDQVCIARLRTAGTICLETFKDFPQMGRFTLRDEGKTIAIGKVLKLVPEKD
Sequence of GSPT1 (Q96SW2 whole entry): as the sequence (Q96SW2 whole entry) above
Sequence of GSPT1 (Q16531 2-1140 partner): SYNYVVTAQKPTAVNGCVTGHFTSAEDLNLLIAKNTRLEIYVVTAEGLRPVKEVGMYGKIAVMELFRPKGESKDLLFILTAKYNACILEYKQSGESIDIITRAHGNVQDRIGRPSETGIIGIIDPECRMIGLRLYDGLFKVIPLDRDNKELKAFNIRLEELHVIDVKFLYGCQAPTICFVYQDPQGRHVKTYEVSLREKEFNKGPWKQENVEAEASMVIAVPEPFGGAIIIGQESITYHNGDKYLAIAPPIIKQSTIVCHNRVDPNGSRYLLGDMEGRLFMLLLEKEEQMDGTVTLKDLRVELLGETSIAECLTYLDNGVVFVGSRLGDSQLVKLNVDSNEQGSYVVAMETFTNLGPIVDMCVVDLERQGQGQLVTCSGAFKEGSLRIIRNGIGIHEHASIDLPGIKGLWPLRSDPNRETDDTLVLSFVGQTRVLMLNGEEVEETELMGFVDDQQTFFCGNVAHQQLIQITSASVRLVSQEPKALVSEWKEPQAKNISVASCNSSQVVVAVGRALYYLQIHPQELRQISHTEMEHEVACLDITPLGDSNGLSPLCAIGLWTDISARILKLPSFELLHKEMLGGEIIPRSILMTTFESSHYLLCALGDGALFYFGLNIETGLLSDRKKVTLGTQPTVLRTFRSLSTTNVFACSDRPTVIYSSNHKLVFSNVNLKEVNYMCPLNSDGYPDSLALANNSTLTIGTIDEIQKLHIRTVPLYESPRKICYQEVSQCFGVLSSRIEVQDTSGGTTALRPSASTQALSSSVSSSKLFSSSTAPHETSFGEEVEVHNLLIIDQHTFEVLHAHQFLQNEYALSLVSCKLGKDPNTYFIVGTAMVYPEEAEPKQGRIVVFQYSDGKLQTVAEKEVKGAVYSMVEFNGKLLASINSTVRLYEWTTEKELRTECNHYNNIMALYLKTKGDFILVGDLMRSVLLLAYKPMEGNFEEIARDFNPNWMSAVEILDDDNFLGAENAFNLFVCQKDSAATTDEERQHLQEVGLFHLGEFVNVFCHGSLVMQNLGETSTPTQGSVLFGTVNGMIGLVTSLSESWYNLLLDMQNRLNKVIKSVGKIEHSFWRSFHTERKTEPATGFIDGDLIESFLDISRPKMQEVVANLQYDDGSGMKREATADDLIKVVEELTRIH

| Compound | DC50 (GSPT1; [2]) [nM] | DC50 (GSPT1; [3]) [nM] | pIC50 ([1]; read-out: IC50 value) | pIC50 ([1]; read-out: rFP IC50) | DC50 (GSPT1; read-out: Activity for GSPT1 degradation, Code (DC50), 6 hours) [nM] | pIC50 ([1]; IC50 value) |
| --- | --- | --- | --- | --- | --- | --- |
| O=C1CCC(N2Cc3ccc(COC(=O)Nc4ccc5c(c4)OCCC5)cc3C2=O)C(=O)N1 (stereo not shown) [Compound 92] | < 30 | ≤ 30 | > 5.96 |  |  |  |
| O=C1CCC(N2Cc3ccc(COC(=O)Nc4cccc(OC5CC5)c4)cc3C2=O)C(=O)N1 (stereo not shown) [Compound 93] | 30 to 300 |  | > 5.96 |  |  |  |
| O=C1CCC(N2Cc3ccc(COC(=O)Nc4cnc(N5CCCCC5)cn4)cc3C2=O)C(=O)N1 (stereo not shown) [Compound 94] | 30 to 300 |  |  | > 6.30 |  |  |
| COc1ccccc1CNC(=O)OCc1ccc2c(c1)C(=O)N(C1CCC(=O)NC1=O)C2 (stereo not shown) [Compound 97] | > 300 |  | > 5.96 |  |  |  |
| O=C1CCC(N2Cc3ccc(COC(=O)NCc4ccccc4)cc3C2=O)C(=O)N1 (stereo not shown) [Compound 98] | > 300 |  | > 5.96 |  |  |  |
| O=C1CCC(N2Cc3ccc(COC(=O)Nc4cc(CN5CC6CC5CO6)cc(OC(F)F)c4)cc3C2=O)C(=O)N1 (stereo not shown) [Compound 100] | 30 to 300 |  | > 5.96 |  |  |  |
| O=C1CCC(N2Cc3ccc(COC(=O)Nc4ccc(C5CC5(F)F)cc4)cc3C2=O)C(=O)N1 (stereo not shown) [Compound 101] | 30 to 300 |  |  | < 5.77 |  |  |
| CC(NC(=O)OCc1ccc2c(c1)C(=O)N(C1CCC(=O)NC1=O)C2)c1ccccc1 (stereo not shown) [Compound 102] | > 300 |  | > 5.96 |  |  |  |
| CC1COc2cc(NC(=O)OCc3ccc4c(c3)C(=O)N(C3CCC(=O)NC3=O)C4)ccc21 (stereo not shown) [Compound 103] | 30 to 300 |  | > 5.96 |  |  |  |
| O=C1CCC(N2Cc3ccc(COC(=O)Nc4ccc(C5CCC5)cc4)cc3C2=O)C(=O)N1 (stereo not shown) [Compound 104] | 30 to 300 |  |  | < 5.77 |  |  |
| O=C1CCC(N2Cc3ccc(COC(=O)Nc4ccc(C5CCC5)nc4)cc3C2=O)C(=O)N1 (stereo not shown) [Compound 105] | 30 to 300 |  | > 5.96 |  |  |  |
| O=C1CCC(N2Cc3ccc(COC(=O)Nc4cc(OCCN5CCOCC5)cc(OC(F)(F)F)c4)cc3C2=O)C(=O)N1 (stereo not shown) [Compound 106] | 30 to 300 |  | > 5.96 |  |  |  |
| O=C1CCC(N2Cc3ccc(COC(=O)Nc4ccc(N5CCC5)nc4)cc3C2=O)C(=O)N1 (stereo not shown) [Compound 107] | > 300 |  |  | > 6.30 |  |  |
| Cc1cc(NC(=O)OCc2ccc3c(c2)C(=O)N(C2CCC(=O)NC2=O)C3)cc(C)c1C#N (stereo not shown) [Compound 108] | 30 to 300 |  |  | > 6.30 |  |  |
| Cc1ccc(NC(=O)OCc2ccc3c(c2)C(=O)N(C2CCC(=O)NC2=O)C3)cc1C#N (stereo not shown) [Compound 110, (2-(2,6-dioxopiperidin-3-yl)-3-oxoisoindolin-5-yl)methyl(3-cyano-4-methylphenyl)carbamate] |  | ≤ 30 | > 6.30 | > 6.30 | < 30 | > 5.96 |
| N#Cc1cc(Cl)cc(NC(=O)OCc2ccc3c(c2)C(=O)N(C2CCC(=O)NC2=O)C3)c1 (stereo not shown) [Compound 111, (2-(2,6-dioxopiperidin-3-yl)-3-oxoisoindolin-5-yl)methyl (3-chloro-5-cyanophenyl)carbamate] | 30 to 300 |  |  | > 6.30 |  |  |
| Cc1cc(C#N)cc(NC(=O)OCc2ccc3c(c2)C(=O)N(C2CCC(=O)NC2=O)C3)c1 (stereo not shown) [Compound 112, (2-(2,6-dioxopiperidin-3-yl)-3-oxoisoindolin-5-yl)methyl (3-cyano-5-methylphenyl)carbamate] | 30 to 300 |  |  | > 6.30 |  |  |

| Compound | DC50 (GSPT1; [2]) [nM] | DC50 (GSPT1; [3]) [nM] | pIC50 ([1]; read-out: IC50 value) | pIC50 ([1]; read-out: rFP IC50) | DC50 (GSPT1; read-out: Activity for GSPT1 degradation, Code (DC50), 6 hours) [nM] | pIC50 ([1]; IC50 value) |
| --- | --- | --- | --- | --- | --- | --- |
| O=C1CCC(N2Cc3ccc(COC(=O)Nc4ccc5c(c4)CC(F)(F)O5)cc3C2=O)C(=O)N1 (stereo not shown) [Compound 113] | 30 to 300 |  |  | > 6.30 |  |  |
| CC(C)(C)c1cc(NC(=O)OCc2ccc3c(c2)C(=O)N(C2CCC(=O)NC2=O)C3)ccn1 (stereo not shown) [Compound 114] | < 30 |  |  | > 6.30 |  |  |
| Cc1c(F)cc(NC(=O)OCc2ccc3c(c2)C(=O)N(C2CCC(=O)NC2=O)C3)cc1Cl (stereo not shown) [Compound 116] | 30 to 300 |  |  | < 5.77 |  |  |
| CC(OC(=O)Nc1cccc(OC(F)(F)F)c1)c1ccc2c(c1)C(=O)N(C1CCC(=O)NC1=O)C2 (stereo not shown) [Compound 121, 1-(2-(2,6-dioxopiperidin-3-yl)-3-oxoisoindolin-5-yl)ethyl(3-(trifluoromethoxy)phenyl)carbamate] | > 300 |  |  | < 5.77 |  |  |
| Cc1cc(C)c(F)c(NC(=O)OCc2ccc3c(c2)C(=O)N(C2CCC(=O)NC2=O)C3)c1 (stereo not shown) [Compound 122, (2-(2,6-dioxopiperidin-3-yl)-3-oxoisoindolin-5-yl)methyl (2-fluoro-3,5-dimethylphenyl)carbamate] | 30 to 300 |  |  | > 6.30 |  |  |
| Cc1cc(NC(=O)OCc2ccc3c(c2)C(=O)N(C2CCC(=O)NC2=O)C3)cc(C)c1F (stereo not shown) [Compound 124, (2-(2,6-dioxopiperidin-3-yl)-3-oxoisoindolin-5-yl)methyl (4-fluoro-3,5-dimethylphenyl)carbamate] | 30 to 300 |  |  | > 6.30 |  |  |
| O=C1CCC(N2Cc3ccc(COC(=O)Nc4cc(OC(F)(F)F)ccc4Cl)cc3C2=O)C(=O)N1 (stereo not shown) [Compound 125, (2-(2,6-dioxopiperidin-3-yl)-3-oxoisoindolin-5-yl)methyl(2-chloro-5-(trifluoromethoxy)phenyl)carbamate] | > 300 |  |  | < 5.77 |  |  |
| O=C1CCC(N2Cc3ccc(COC(=O)NC45CC(c6ccccc6)(C4)C5)cc3C2=O)C(=O)N1 (stereo not shown) [Compound 126, (2-(2,6-dioxopiperidin-3-yl)-3-oxoisoindolin-5-yl)methyl (3-phenylbicyclo[1.1.1]pentan-1-yl carbamate] | < 30 | ≤ 30 |  | > 6.30 |  |  |
| Cc1ccc(NC(=O)OCc2ccc3c(c2)C(=O)N(C2CCC(=O)NC2=O)C3)cc1C (stereo not shown) [Compound 129] | 30 to 300 |  |  | > 6.30 |  |  |
| O=C1CCC(N2Cc3ccc(COC(=O)Nc4cc(F)c(-c5ccccc5)c(F)c4)cc3C2=O)C(=O)N1 (stereo not shown) [Compound 134, (2-(2,6-dioxopiperidin-3-yl)-3-oxoisoindolin-5-yl)methyl(2,6-difluoro-[1,1′-biphenyl]-4-yl)carbamate] | 30 to 300 |  |  | < 5.77 |  |  |
| O=C1CCC(N2Cc3ccc(COC(=O)Nc4ccc(-c5ccccn5)cc4F)cc3C2=O)C(=O)N1 (stereo not shown) [Compound 135, (2-(2,6-dioxopiperidin-3-yl)-3-oxoisoindolin-5-yl)methyl (2-fluoro-4-(pyridin-2-yl)phenyl)carbamate] | < 30 | ≤ 30 |  | > 6.30 |  |  |
| O=C1CCC(N2Cc3ccc(COC(=O)Nc4ccc(-c5ccccc5)c(F)c4)cc3C2=O)C(=O)N1 (stereo not shown) [Compound 136, (2-(2,6-dioxopiperidin-3-yl)-3-oxoisoindolin-5-yl)methyl (2-fluoro-[1,1′-biphenyl]-4-yl) carbamate] | 30 to 300 |  |  | < 5.77 |  |  |
| Cc1cc(NC(=O)OCc2ccc3c(c2)C(=O)N(C2CCC(=O)NC2=O)C3)ccc1-c1ccccc1 (stereo not shown) [Compound 137, (2-(2,6-dioxopiperidin-3-yl)-3-oxoisoindolin-5-yl)methyl(2-methyl-[1,1′-biphenyl]-4-yl)carbamate] | < 30 | ≤ 30 |  | < 5.77 |  |  |
| O=C1CCC(N2Cc3ccc(COC(=O)Nc4ccc(-c5ccccc5)cn4)cc3C2=O)C(=O)N1 (stereo not shown) [Compound 143, (2-(2,6-dioxopiperidin-3-yl)-3-oxoisoindolin-5-yl)methyl (5-phenylpyridin-2-yl)carbamate] | 30 to 300 |  |  | < 5.77 |  |  |
| O=C1CCC(N2Cc3ccc(COC(=O)Nc4ccc(OC(F)(F)F)cc4F)cc3C2=O)C(=O)N1 (stereo not shown) [Compound 148, (2-(2,6-dioxopiperidin-3-yl)-3-oxoisoindolin-5-yl)methyl(2-fluoro-4-(trifluoromethoxy)phenyl)carbamate] | > 300 |  |  | < 5.77 |  |  |
| O=C1CCC(N2Cc3ccc(COC(=O)Nc4ccnc(-c5ccccc5)c4)cc3C2=O)C(=O)N1 (stereo not shown) [Compound 149] | > 300 |  |  | > 6.30 |  |  |
| CC1(c2ccc(NC(=O)OCc3ccc4c(c3)C(=O)N(C3CCC(=O)NC3=O)C4)cn2)CC1 (stereo not shown) [Compound 152, (2-(2,6-dioxopiperidin-3-yl)-3-oxoisoindolin-5-yl)methyl (6-(1-methylcyclopropyl)pyridin-3-yl)carbamate] | < 30 | ≤ 30 |  | > 6.30 |  |  |
